Reference: article PMC12781162, “Human Protein Z as the Second Known Heme‐Binding Protein from the Endogenous Blood Coagulation Inhibitor System” (Chembiochem, 2025)
Like-named read-outs stand apart in the source and are kept apart here.

Legend:
Human protein Z (PZ) = target: T1, Human protein Z (PZ) (Homo sapiens, UniProt P22891); assay: SPR binding of porphyrins to immobilized PZ (single-cycle kinetics); conditions: for Kd: heterogenous ligand model
T1 construct: purchased CellSystems GmbH HCPZ-0220
Method: (§1) SPR experiments were conducted on a Biacore 8K instrument (Cytiva) to investigate the interaction of PZ with heme, as established before.^[ [19] ^, [35] ^, [37] ^, [43] ^] In brief, PZ (10 µg mL^−1) was dissolved in 10 mM sodium acetate buffer (pH 3.5) and immobilized onto a CM5 sensor chip via standard amine coupling, resulting in a final immobilization level of 767 RU. Heme (stock solution in 30 mM NaOH) was further diluted in running buffer (10 mM HEPES, 150 mM NaCl, and 0.05% Tween 20, pH 7.4). The same was performed with zinc (II) protoporphyrin IX and protoporphyrin IX (Frontier Scientific). Binding kinetics were assessed by injecting seven increasing concentrations of heme (187.5–12,000 nM) in a single‐cycle kinetics format at 25 °C and a flow rate of 30 µL min^−1. Data analysis was performed by global fitting using Biacore Insight Evaluation Software, version 3.0.12.15655 (Cytiva).

thrombin = thrombin (Homo sapiens, UniProt P00734); assay: SPR binding of porphyrins to immobilized thrombin; design: human α‐thrombin (HCT‐0020); purchased CellSystems GmbH HCT-0020; conditions: heterogeneous ligand model
Method: as §1
Figure S7. Heme binds to thrombin. For SPR analysis, thrombin (10 µg/ml) was dissolved in 10 mM sodium acetate buffer (pH 6.0) and immobilized onto a CM5 sensor chip via standard amine coupling, resulting in a final immobilization level of 1826.1 RU. Binding kinetics were assessed by injecting six increasing concentrations of heme (187.5 – 6,000 nM) in a single-cycle kinetics format at 25°C and a flow rate of […]
transient nature of heme binding to thrombin. […]

T1 sequence (P22891 41-400): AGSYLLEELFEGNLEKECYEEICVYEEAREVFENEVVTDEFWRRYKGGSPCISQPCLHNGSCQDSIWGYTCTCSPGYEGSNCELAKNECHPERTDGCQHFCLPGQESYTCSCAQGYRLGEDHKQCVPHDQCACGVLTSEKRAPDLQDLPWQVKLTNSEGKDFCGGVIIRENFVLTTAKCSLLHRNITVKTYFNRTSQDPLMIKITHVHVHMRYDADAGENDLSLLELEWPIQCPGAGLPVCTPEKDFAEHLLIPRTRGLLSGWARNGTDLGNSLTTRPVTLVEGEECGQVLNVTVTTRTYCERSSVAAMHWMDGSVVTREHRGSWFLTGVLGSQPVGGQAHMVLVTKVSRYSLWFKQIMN

Hemin [heme]
k a1 (association rate) (Human protein Z (PZ); first binding event): 47300 M⁻¹ s⁻¹
k d1 (dissociation rate) (Human protein Z (PZ); first binding event): 0.00583 s⁻¹
Kd (Human protein Z (PZ); heme 187.5 nM–12 µM, 25 °C, read-out: K D1 (heme-binding affinity for PZ)): 123 nM
Kd (Human protein Z (PZ); read-out: K D2 (second binding event, likely unspecific)): 8570 nM
k a2 (association rate) (Human protein Z (PZ); second binding event): 845 M⁻¹ s⁻¹
k d2 (dissociation rate) (Human protein Z (PZ); second binding event): 0.00724 s⁻¹
Kd (thrombin; read-out: KD1 (porphyrin binding to thrombin)): 92.9 nM
Kd (thrombin; read-out: KD2 (porphyrin binding to thrombin)): 709 nM
